Assays:
6-week old male chickens = assay: In vivo lipid metabolism evaluation in normocholesterolemic chickens (serum cholesterol pools); design: species or system chicken; details: test compound 50 ppm in corn-soybean diet for four weeks; for LDL Cholesterol: control 62.7 ± 2.5; for HDL Cholesterol: control 99.9 ± 1.9; for Total Cholesterol: fasted 36 h, refed 48 h, control 183.0 ± 4.5
Description: Serum cholesterol, triglycerides, low density and high density liproprotein cholesterol as determined in drug treated birds.
(§1) Newborn male chicks (8 for each group) were raised on a standard corn-soybean based control diet for two weeks and then switched to either control or experimental diets for four weeks. Drug treatment consisted of the addition of test compounds to the corn-soybean-based diet at a concentration of 50 ppm. At the end of the feeding period, all the birds were fasted (36 hours) and refed (48 hours) to induce cholesterolgenic enzymes prior to sacrifice. The specific activity of HMGR, total serum cholesterol levels, LDL cholesterol and HDL cholesterol pools were determined using previously described methods (Qureshi et al., J. Biol. Chem., 261, 10544 (1986)) (Table 1).

[1] = system: β-Hydroxy-β-Methylglutaryl Coenzyme A Reductase (HMGR); assay: Ex vivo HMGR suppression in the liver of drug dosed chickens; design: species or system chicken; details: test compound 50 ppm in diet for four weeks, control 33.8
Description: β-Hydroxy-β-Methylglutaryl Coenzyme A Reductase (HMGR) activity in the liver of drug dosed chickens.
as §1

LDL = LDL antioxidant assay (conjugated diene formation); assay type: biochemical, rabbit; details: for LR (end of lag phase of LDL oxidation) vs control: whole rabbit plasma incubated with drug, LDL isolated, time of first derivative maximum of conjugated diene kinetic curve
Description: Inhibition of LDL oxidation as measured by conjugated diene formation.
Whole rabbit plasma was incubated with either vehicle or drug, and the LDL was isolated by ultracentrifugation. EDTA was removed by dialysis and analysis of co-dependent LDL oxidation was determined by conjugated diene formation using the protocol established by Esterbauer et al., (Free Radical Res. Commun. 6(1), 75-75 (1989)). The time of the first derivative maximum in the kinetic curves, corresponding to the end of the lag phase (LR) of the reaction, indicates both the intrinsic effectiveness of the antioxidant combined with its local concentration with in the LDL particles. […] Substitution of methylene for oxygen at position 1 would diminish antioxidant capacity.

| Compound | LDL Cholesterol (6-week old male chickens) | HDL Cholesterol (6-week old male chickens) | Total Cholesterol (6-week old male chickens) | HMGR (specific activity) [1] | LR (end of lag phase of LDL oxidation) vs control (LDL) | LDL antioxidation properties (in words) (LDL; rabbit LDL, conjugated diene formation) |
| --- | --- | --- | --- | --- | --- | --- |
| CC(C)=CCC/C(C)=C/CC/C(C)=C/CCC1(C)CCc2cc(O)ccc2O1 (centres unmarked) [Tocotrienol, reference compound] | 42.8 ± 2.8 | 91.7 ± 1.0 | 149.8 ± 4.5 | 13.6 | 2.01 | – |
| CC(C)=CCC/C(C)=C/CC/C(C)=C/CCC1(C)CCc2cc(O)ccc2C1 (centres unmarked) [Compound 12, 5,6,7,8-Tetrahydro-6-Methyl-6-(4,8,12-Trimethyl-3(E), (7E), 11-tridecatrienyl)-2-Naphthalenol] | 28.4 ± 1.3 | 85.3 ± 1.3 | 125.5 ± 3.0 | 14.6 | 1.32 | exhibits LDL antioxidation properties |

Reference: patent publication US5204373A, “Farnesylated tetrahydro-naphthalenols as hypolipidemic agents” (Bristol-Myers Squibb Company, priority 1991, dated 1993)
